In test [1] the target is hROMK (hKir1.1) (Homo sapiens (Human), UniProt P48048). Description: Thallium Flux Assay (ROMK channel functional thallium flux, FLIPR-Tetra). The note with it: read-out: Thallium Flux IC50. In kind it is cell-based. As to the method:
Cell Culture Conditions—HEK293 cells stably expressing hROMK (hKir1.1) were grown at 37° C. in a 10% CO2 humidified incubator in complete growth media: Dulbecco's Modified Eagle Medium supplemented with non-essential amino acids, Penicillin/Streptomycin/Glutamine, G418 and FBS. At >80% confluency, aspirate the media from the flask and rinse with 10 mL Calcium/Magnesium-free PBS. […] To dislodge the cell, gently bang the side of the flask with your hand. Triturate the cells completely and then transfer the cells to 25 mL complete media. Centrifuge at 1,500 rpm for 6 min followed by resuspension in complete growth media and determine cell concentration. […] Under ideal growth conditions and appropriate tissue culture practices, this cell line is stable for 40-45 passages.
FluxOR Kit Components (Invitrogen F10017) • FluxOR™ Reagent (Component A) • FluxOR™ Assay Buffer (Component B)—10× Concentrate • PowerLoad™ Concentrate (Component C)—100× Concentrate • Probenecid (Component D)—Lyophilized sample is kept at −20° C. Water soluble, 100× after solubilization in 1 mL water. […] Store at 4° C. • Thallium sulfate (Tl2SO4) Concentrate (Component G)—50 mM in water. Store at 4° C. • DMSO (dimethyl sulfoxide, Component H)—1 mL (100%)
Can be stored at room temperature • Stimulant Buffer (prepared at 5× final concentration in 1× FluxOR™ Chloride-Free Buffer): 7.5 mM Thallium sulfate and 0.75 mM Potassium sulfate (to give a final assay concentration of 3 mM Thallium/0.3 mM Potassium). Store at 4° C. when not in use. If kept sterile, this solution is good for months.
Assay Protocol—The ROMK channel functional thallium flux assay is performed in 384 wells, using the FLIPR-Tetra instrument. HEK-hKir1.1 cells are seeded in Poly-D-Lysine microplates and kept in a 37° C.-10% CO2 incubator overnight. On the day of the experiment, the growth media is replaced with the FluxOR™ reagent loading buffer and incubated, protected from light, at ambient temperature (23-25° C.) for 90 min. The loading buffer is replaced with assay buffer±test compound followed by 30 min incubation at ambient temperature, where the Thallium/Potassium stimulant is added to the microplate.
Step Protocol • 1. Seed HEK-hKir1.1 cells (50 μl at 20,000 cells/well) in 384-well PDL coated Microplates • 2. Allow cells to adhere overnight in humidified 37° C./10% CO2 incubator • 3. Completely remove cell growth media from microplate and replace with 25 μl loading buffer • 4. Incubate Microplate at room temperature, protected form light, for 90 min • 5. Remove loading buffer and replace with 25 μl 1× Assay Buffer±test compound. • 6. Incubate microplate at room temperature, protected from light, for 30 min • 7. […] Excitation=400 nm, Emission=460 & 580 nm. Collect data for ˜10 min.
Data Calculation—The fluorescence intensity of wells containing 3 μM of a standard control ROMK inhibitor of the present invention is used to define the ROMK-sensitive component of thallium flux. Fluorescence in the presence of test compounds is normalized to control values to provide % fluorescence change.

Test [2] deals with Kir1.1 (ROMK1) (Homo sapiens (Human), UniProt P48048). Description: Electrophysiology Assay (whole cell voltage clamp, IonWorks Quattro). In kind it is cell-based. The settings on record: block during voltage step to 0 mV. As to the method:
Chinese hamster ovary cells stably expressing Kir1.1 channels were maintained in T-75 flasks in cell culture media in a humidified 10% CO2 incubator at 37° C. Prior to an experiment, Kir1.1 expression was induced by overnight incubation with 1 mM sodium butyrate. […] After centrifugation, the cell pellet was resuspended in approximately 4.0 mL of bath solution and placed in the IonWorks instrument. The intracellular solution consisted of (in mM): 80 K gluconate, 40 KCl, 20 KF, 3.2 MgCl2, 3 EGTA, 5 Hepes, pH 7.4. Electrical access to the cytoplasm was achieved by perforation in 0.13 mg/mL amphotericin B for 4 min. […] Voltage protocols and current recordings were performed using the IonWorks HT software/hardware system. Currents were sampled at 1 kHz. No correction for liquid junction potentials was used. The test pulse, consisting of a 100 ms step to 0 mV from a holding potential of −70 mV, followed by a 100 ms voltage ramp from −70 mV to +70 mV, was applied before and after a 6 min compound incubation period. Test compounds were prepared by diluting DMSO stock solutions into the bath solution at 3× the final concentration and placed in the instrument in 96-well polypropylene plates. Current amplitudes were measured using the IonWorks software.
Background: The patch-clamp technique gives a direct electrical read-out from membranes.

[3] abbreviates: HEK293 cells stably expressing hROMK (hKir1.1).
Where [4] appears, read: Electrophysiology IC50, Chinese hamster ovary cells stably expressing Kir1.1.
Setting [5] is: Chinese hamster ovary cells stably expressing Kir1.1, read-out: Electrophysiology IC50.

Where two headings read alike, the source gives them in different places.

Sequence of hROMK (hKir1.1) (P48048 whole entry): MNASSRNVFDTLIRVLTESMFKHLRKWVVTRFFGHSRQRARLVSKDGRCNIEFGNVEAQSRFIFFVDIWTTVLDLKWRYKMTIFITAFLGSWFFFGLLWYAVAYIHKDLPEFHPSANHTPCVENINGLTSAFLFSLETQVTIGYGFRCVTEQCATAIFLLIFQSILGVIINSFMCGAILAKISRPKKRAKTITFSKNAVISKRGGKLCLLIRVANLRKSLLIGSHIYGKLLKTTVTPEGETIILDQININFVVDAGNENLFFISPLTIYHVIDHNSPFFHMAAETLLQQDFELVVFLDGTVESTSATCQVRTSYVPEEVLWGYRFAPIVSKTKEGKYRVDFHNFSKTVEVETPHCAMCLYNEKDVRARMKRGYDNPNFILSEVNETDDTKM
Sequence of Kir1.1 (ROMK1) (P48048 whole entry): as above

`Cc1c(C2CN3CCCN(C(=O)Cc4ccc(-n5cnnn5)cc4)CC3CO2)ccc2c1COC2=O` (stereo not drawn) [Example 50, 4-methyl-5-(9-{[4-(1H-tetrazol-1-yl)phenyl]acetyl}octahydro-1H-[1,4]oxazino[4,3-a][1,4]diazepin-3-yl)-2-benzofuran-1(3H)-one]: the IC50 in test [1] (setting [3]) amounted to 740 nM; in test [2] (setting [4]), 180 nM.
For `Cc1c([C@@H]2CN3CCN(C(=O)C4CCCc5cc(-n6cnnn6)ccc54)C[C@H]3CO2)ccc2c1COC2=O` (single isomer, unassigned) [Example 89], the IC50 in test [1] (setting [3]) was 490 nM; in test [2] (setting [5]), 460 nM.
For `Cc1c([C@@H]2CN3CCN(C(=O)C4CCc5cc(-n6cnnn6)ccc54)C[C@H]3CO2)csc1C#N` (single isomer, unassigned) [Example 83] the same measures were 140 nM and 90 nM.
For `Cc1c([C@@H]2CN3CCN(C(=O)Cc4cc(-n5cnnn5)ccc4F)C[C@@H]3CO2)ccc(F)c1C#N` [Example 59, 6-fluoro-3-[(3R,9aR)-8-{[2-fluoro-5-(1H-tetrazol-1-yl)phenyl]acetyl}octahydropyrazino[2,1-c][1,4]oxazin-3-yl]-2-methylbenzonitrile] the same measures were 360 nM and 140 nM.
Turning to `O=C(Cc1ccc(-n2cnnn2)cc1)N1CCN2C[C@@H](c3ccc4nonc4c3)OC[C@@H]2C1` [Example 77, (3R,9aS)-3-(2,1,3-benzoxadiazol-5-yl)-8-{[4-(1H-tetrazol-1-yl)phenyl]acetyl}octahydropyrazino[2,1-c][1,4]oxazine], the 50% inhibitory concentration (IC50) in test [1] (setting [3]) worked out at 150 nM; in test [2] (setting [4]), 50 nM.
As to `O=C1OCCc2cc([C@@H]3CN4CCN(C(=O)Cc5ccc(-n6cnnn6)cc5)C[C@H]4CO3)ccc21` [Example 15, 6-[(3R,9aS)-8-{[4-(1H-tetrazol-1-yl)phenyl]acetyl}octahydropyrazino[2,1-c][1,4]oxazin-3-yl]-3,4-dihydro-1H-isochromen-1-one], the IC50 came out at 50 nM in test [1] and 80 nM in test [2] (setting [5]).
`COc1ccc([C@@H]2CN3CCN(C(=O)C4CCc5cc(-n6cnnn6)ccc54)C[C@H]3CO2)c(C)c1C#N` (stereo partly drawn) [Example 63, 6-methoxy-2-methyl-3-[(3R,9aS)-8-{[5-(1H-tetrazol-1-yl)-2,3-dihydro-1H-inden-1-yl]carbonyl}octahydropyrazino[2,1-c][1,4]oxazin-3-yl]benzonitrile]: the IC50 amounted to 180 nM in test [1] (setting [3]) and 450 nM in test [2] (setting [5]).
`COc1cc(CC(=O)N2CCN3C[C@H](c4ccc5c(c4)CCOC5=O)OC[C@H]3C2)ccc1C#N` [Example 28, 2-methoxy-4-{2-oxo-2-[(3S,9aR)-3-(1-oxo-3,4-dihydro-1H-isochromen-6-yl)hexahydropyrazino[2,1-c][1,4]oxazin-8(1H)-yl]ethyl}benzonitrile]: the half-maximal inhibitory concentration (IC50) in test [1] (setting [3]) is 330 nM; in test [2] (setting [4]) it was 130 nM.
Consider `COc1cc([C@@H]2CN3CCN(C(=O)C4CCc5cc(-n6cnnn6)ccc54)C[C@H]3CO2)ccc1C#N` (stereo partly drawn) [Example 65, 2-methoxy-4-[(3R,9aS)-8-{[5-(1H-tetrazol-1-yl)-2,3-dihydro-1H-inden-1-yl]carbonyl}octahydropyrazino[2,1-c][1,4]oxazin-3-yl]benzonitrile], for which the IC50 in test [1] (setting [3]) came out at 400 nM; in test [2] (setting [5]), 350 nM.
For the molecule `O=C1OCc2c1ccc([C@H]1CN3CCN(C(=O)Cc4ccc(-n5cnnn5)cc4)C[C@H]3CO1)c2Cl` [Example 21, 4-chloro-5-[(3S,9aS)-8-{[4-(1H-tetrazol-1-yl)phenyl]acetyl}octahydropyrazino[2,1-c][1,4]oxazin-3-yl]-2-benzofuran-1(3H)-one], the IC50 in test [1] (setting [3]) and in test [2] (setting [4]) was 100 nM throughout.
For `Cc1c([C@@H]2CN3CCN(C(=O)Cc4ccc(-n5cnnn5)cc4C#N)C[C@H]3CO2)ccc(F)c1C#N` [Example 67, 3-[(3R,9aS)-8-{[2-cyano-4-(1H-tetrazol-1-yl)phenyl]acetyl}octahydropyrazino[2,1-c][1,4]oxazin-3-yl]-6-fluoro-2-methylbenzonitrile], the IC50 turned out to be 130 nM in test [1] (setting [3]) and 170 nM in test [2] (setting [4]).
As to `Cc1c([C@H]2CN3CCN(C(=O)Cc4ccc(-n5cnnn5)cc4)C[C@H]3CO2)ccc2nonc12` [Example 75, (3S,9aS)-3-(4-methyl-2,1,3-benzoxadiazol-5-yl)-8-{[4-(1H-tetrazol-1-yl)phenyl]acetyl}octahydropyrazino[2,1-c][1,4]oxazine], the IC50 amounted to 210 nM in test [1] (setting [3]) and 120 nM in test [2] (setting [5]).
Take `Cc1c([C@H]2CN3CCN(C(=O)C4Cc5ccc(-n6cnnn6)cc5C4)C[C@H]3CO2)ccc(F)c1C#N` (stereo partly drawn) [Example 44, 6-fluoro-2-methyl-3-[(3S,9aS)-8-{[5-(1H-tetrazol-1-yl)-2,3-dihydro-1H-inden-2-yl]carbonyl}octahydropyrazino[2,1-c][1,4]oxazin-3-yl]benzonitrile]: the figures for the IC50 in test [1] (setting [3]) and in test [2] (setting [5]) were 370 nM and 160 nM, respectively.
Turning to `Cc1c([C@@H]2CN3CCN(C(=O)Cc4ccc(-n5cnnn5)cc4Cl)C[C@@H]3CO2)ccc(F)c1C#N` [Example 69, 3-[(3R,9aR)-8-{[2-chloro-4-(1H-tetrazol-1-yl)phenyl]acetyl}octahydropyrazino[2,1-c][1,4]oxazin-3-yl]-6-fluoro-2-methylbenzonitrile], the IC50 amounted to 100 nM in test [1] and 110 nM in test [2] (setting [4]).
For `Cc1c([C@H]2CN3CCN(C(=O)Cc4cccc(-n5cnnn5)c4)C[C@@H]3CO2)ccc(F)c1C#N` [Example 57, 6-fluoro-2-methyl-3-[(3S,9aR)-8-{[3-(1H-tetrazol-1-yl)phenyl]acetyl}octahydropyrazino[2,1-c][1,4]oxazin-3-yl]benzonitrile], the IC50 amounted to 140 nM in test [1] (setting [3]) and 50 nM in test [2] (setting [5]).
With `Cc1c([C@H]2CN3CCN(C(=O)Cc4ccc5c(c4)COC5=O)C[C@H]3CO2)ccc(F)c1C#N` [Example 23, 6-fluoro-2-methyl-3-{(3S,9aS)-8-[(1-oxo-1,3-dihydro-2-benzofuran-5-yl)acetyl]octahydropyrazino[2,1-c][1,4]oxazin-3-yl}benzonitrile], the IC50 in test [1] and in test [2] (setting [4]) was 70 nM each time.
In the case of `COc1ccc([C@@H]2CN3CCN(C(=O)Cc4ccc(-n5cnnn5)cc4)C[C@H]3CO2)c(F)c1C#N` [Example 25, 2-fluoro-6-methoxy-3-[(3R,9aS)-8-{[4-(1H-tetrazol-1-yl)phenyl]acetyl}octahydropyrazino[2,1-c][1,4]oxazin-3-yl]benzonitrile], the IC50 in test [1] (setting [3]) was determined as 150 nM; in test [2] (setting [5]), 200 nM.
For `Cc1c(C#N)cccc1[C@@H]1CN2CCN(C(=O)Cc3ccc(-n4cnnn4)cc3)C[C@H]2CO1` [Example 42, 2-methyl-3-[(3R,9aS)-8-{[4-(1H-tetrazol-1-yl)phenyl]acetyl}octahydropyrazino[2,1-c][1,4]oxazin-3-yl]benzonitrile], in that order: 90 nM and 130 nM.

Broadly, the IC50 is the concentration at which inhibition is half-maximal.

The record behind these values is patent US9573961B2, “Inhibitors of the renal outer medullary potassium channel” (Merck Sharp & Dohme Corp., priority 2012, dated 2017).
